The target in assay [1] is DCN1 (DCUND1) protein PONY domain (Homo sapiens (Human), UniProt Q96GG9). Nature of the assay: TR-FRET assay, DCN1 binding with FAM-labeled probe. The method, boiled down:
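Tb-DCN1 PONY domain (E. coli, biotin/streptavidin-Tb); FAM-labelled non-covalent inhibitor probe; TritonX buffer, 200 mM NaCl; 5 nM DCN1 + 20 nM probe or 0.31 nM DCN1 + 900 nM total probe; 0.1% DMSO; TR-FRET read 1, 5, 24 hrs.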

For assay [2], the system named is Cullin-3 (CUL3) neddylation. Nature of the assay: AlphaLISA assay for Cullin-3 (CUL3) neddylation in TF 1 cells. Particulars: 3 hours treatment. In kind it is cell-based. The method, boiled down:
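Neddylated CUL3 was quantified by AlphaLISA in lysates of TF 1 cells exposed for 3 h to test compound in IMDM without supplements. Percent inhibition set between vehicle and 1 μM DI-1548 positive control; IC50 derived by Hill-equation fitting of dose-response curves.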

The test system of a further assay is fetal hemoglobin protein. Briefly: HbF HPLC Cell Culture Assay. Particulars: for EC50: 336 h, HbF induction, Day 14 of culture; for Hemoglobin HPLC Ymax obs (%): relative to a control compound. In kind it is cell-based. The method, then:
A Cell Culture Assay was performed to evaluate the ability of compounds to induce fetal hemoglobin in a cell culture. The amount fetal hemoglobin protein induced was measured by HPLC.
Cell culture began on Day −4 (thaw day). Thaw buffer was prepared by sterile filtering 6 mL of Human Serum Albumin and 144 mL of PBS to make sterile 1% I/PBS. Cells were removed from liquid nitrogen storage and mostly thawed in a 37° C. water bath. Once the ice in the cryovials was melted, cells were transferred quickly into a 50 mL conical tube. Cryovial was rinsed once with thaw buffer and buffer was transferred over to the conical tube as well. Next, doubling volumes of thaw buffer was added to the conical and gently swirled for ˜30 seconds to one minute (for example: 2 mL was added and swirled, then 4 mL, then 8 mL, and so on) until the volume in the conical is 32 mL. Cells and buffer were centrifuged at 300G for 8 minutes, and the supernatant was aspirated. Another 32 mL of thaw buffer was added slowly, swirling the tube. The tube was again centrifuged at 300G for 8 minutes and the supernatant was aspirated. Cells were counted by resuspending in 1 mL of expansion media and counting with AOPI to determine the concentration of cells/mL.
On day 2, Passage & Treatment Day, each cell culture well was counted. Next fresh CD34 Expansion Media was made which contained StemSpan SFEM, CC100 and TPO all from StemCell technologies. Appropriate volume of cells was collected, centrifuged at 300 g and resuspended in fresh media. Cells were plated in treatment format at a density of 200,000 cells/ml, 25,000 cells/well. Finally, they were treated with test compounds as well as positive and negative controls.
On Days 0, 3 & 5 the same process was carried out. First, each cell culture well was counted. Next Phase 1 Erythroid Differentiation Media was freshly made, which contained StemSpan SFEM, 2.5 U/ml EPO, 0.5 mg/ml Holo-TF, 1× Glutamax, 5 μl/ml chemically defined lipid mixture, 10 ng/ml insulin, 50 ng/ml SCF, 10 ng/ml IL-3. Appropriate volume of cells was collected, centrifuged at 300 g and resuspended in fresh media. Cells should now be in fresh wells at a density of 100,000 cells/ml. 60,000 cells, 60,000 cells and 100,000 cells for days 0, 3, 5 respectively. Finally, fresh compound was added to each well at each timepoint (Days 0, 3 & 5).
On Day 7 media and cell culture density changes. Each cell culture well was counted. Next, Phase 2 Erythroid Differentiation Media was freshly made, which contains StemSpan SFEM, 2.5 U/ml EPO, 0.5 mg/ml Holo-TF, 1× Glutamax, 5 μl/ml chemically defined lipid mixture, 10 ng/ml insulin, 50 ng/ml SCF. Appropriate volume of cells was collected, centrifuged at 300 g and resuspended in fresh media. Cells were plated in fresh wells at a density of 500,000 cells/ml, 300,000 cells/well. Finally, fresh compound was added to each well at Day 7 timepoint.
On Day 10 media formulation is once again changed. Each cell culture well was counted. Fresh Phase 3 Erythroid Differentiation Media was made which contains StemSpan SFEM, 2.5 U/ml EPO, 0.5 mg/ml Holo-TF, 1× Glutamax, 5 μl/ml chemically defined lipid mixture, 10 ng/ml insulin. Appropriate volume of cells was collected, centrifuged at 300 g and resuspended in fresh media. Cells were plated in fresh wells at a density of 500,000 cells/ml, 500,000 cells/well. Finally, fresh compound was added to each well at Day 10 timepoint.
On Day 12 the cell density is once again changed. Each cell culture well was counted. Fresh Phase 3 Erythroid Differentiation Media was made. Appropriate volume of cells was collected, centrifuged at 300 g and resuspended in fresh media. Cells were plated in fresh wells at a density of 1,000,000 cells/ml, 1,000,000 cells/well. Finally fresh compound was added to each well.
Day 14 (18th day of experiment) refers to the terminal day of culture. Each cell culture well was counted. Next between 150K and 650K cells were placed in a uniquely labeled 1.5 ml standard tube. […]

The target of a further assay is DCN1 protein (Homo sapiens (Human), UniProt Q96GG9). Briefly: Intact Protein MS Analysis with the RapidFire-TOF System (covalent adduct formation). In kind it is binding. As to conditions: MS Emax; 400 nM DCN1, 3 hours at room temperature. The gist of the method:
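Tag-cleaved human DCN1 (400 nM) expressed in E. coli, in 25 mM Tris-HCl, 200 mM NaCl, 1 mM DTT, was incubated with 11 compound concentrations for 3 h at room temperature and quenched with 0.2% formic acid. Intact-protein Q-TOF MS with deconvolution detected the compound adduct mass.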

In assay [3] the target is DCN2 (DCUND2) protein PONY domain (Homo sapiens (Human), UniProt Q6PH85). Briefly: Measurement of Kinact/KI in the DCN2 TR-FRET Assay. The class given is binding. How it is done:
A TR-FRET Assay was performed to evaluate the ability of the compounds to bind DCN-2.
The time resolved—Forster's resonance energy transfer (TR-FRET) assay was designed following the protocol established in (Scott et al., Nat Chem Biol. 2017 August; 13(8): 850-857). A recombinant form of the DCN2 (DCUND2) protein PONY domain was produced using an E. coli expression system at Viva Biotech China. The DCN2 protein was biotinylated (EZ sulfo-NHS-LC-biotin; Thermofisher) for labeling with 2.5 nM streptavidin terbium (Tb) cryptate in the reaction. The probe was changed to a non-covalent DCN1 inhibitor labeled with carboxyfluorescein (FAM; Zhou et al, Nat Commun. 2017; 8: 1150). Buffer conditions were modified to enhance protein stability by replacing TritonX with 0.05% Tween20 and increasing NaCl to 200 mM. The compounds were screened against 0.31 nM DCN1 and 40 nM FAM-labeled probe in a 40 ul reaction volume. The TR-FRET ratio between Tb-DCN1 and the FAM-labeled probe was measured in a 384-well opti-plate (Perkin Elmer) using a plate reader (BMG) at after treatment with compound (final DMSO concentration of 0.1%). The ratio was normalized to the high (DCN1 and FAM-probe) and low (DCN1 and no probe) controls for a readout of % activity (=100*(x−low)/(high−low)).
The Kinact and KI measurements were taken to allow for continuous reads over 24 hrs. Plates were read every 5 min up to 1 hr, every 15 min up to 5 hr, and every hour up to […]. Kinact and KI were calculated based on the following equations (Krippendorff B F, et al. Mechanism-based inhibition: deriving K(I) and k(inact) directly from time-dependent IC(50) values. J BiomolScreen. 2009; Mons E et al. A Comprehensive Guide for Assessing Covalent Inhibition in Enzymatic Assays Illustrated with Kinetic Simulations. CurrProtoc. 2022) where the KM of the probe against DCN2 is 21.62 nM. The Kinact and KI values could be estimated from the tight curves of the IC50 values over time.
A general note: TR-FRET usually uses a lanthanide donor and a delayed reading to cut background.

Setting [4] is: 24 hr after treatment with compound, read-out: TR FRET IC50 24 hr.
Where [5] appears, read: time-dependent IC50 over 24 hrs.

Five compounds from patent US20250163057A1, “DCN-1 MODULATING COMPOUNDS AND METHODS OF USE THEREOF” (Cellarity, Inc., priority 2023, published 2025) can be followed below.

Where two headings read alike, the source gives them in different places.

Chain of DCN2 (DCUND2) protein PONY domain (Q6PH85 60-248): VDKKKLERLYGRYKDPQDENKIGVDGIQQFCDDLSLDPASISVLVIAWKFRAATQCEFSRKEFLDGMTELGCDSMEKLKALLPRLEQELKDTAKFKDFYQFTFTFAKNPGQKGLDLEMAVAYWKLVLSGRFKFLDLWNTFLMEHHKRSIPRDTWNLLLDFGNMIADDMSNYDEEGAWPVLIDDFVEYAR
Chain of DCN1 protein (Q96GG9 whole entry): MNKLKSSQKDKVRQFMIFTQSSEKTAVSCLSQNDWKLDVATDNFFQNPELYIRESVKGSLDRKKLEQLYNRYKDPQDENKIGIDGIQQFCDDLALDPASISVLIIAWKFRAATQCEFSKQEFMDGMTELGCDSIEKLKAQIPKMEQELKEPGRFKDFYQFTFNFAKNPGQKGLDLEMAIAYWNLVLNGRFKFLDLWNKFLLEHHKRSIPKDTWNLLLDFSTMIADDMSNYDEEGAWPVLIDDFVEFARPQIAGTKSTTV
Chain of DCN1 (DCUND1) protein PONY domain (Q96GG9 60-248): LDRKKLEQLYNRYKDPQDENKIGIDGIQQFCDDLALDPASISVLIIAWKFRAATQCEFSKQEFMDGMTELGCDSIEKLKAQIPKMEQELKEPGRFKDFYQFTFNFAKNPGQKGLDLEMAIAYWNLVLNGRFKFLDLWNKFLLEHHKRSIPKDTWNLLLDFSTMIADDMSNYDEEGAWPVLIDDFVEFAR

Take `CCN1C(=O)[C@@H](NC(=O)c2cccc(C(F)(F)F)c2)[C@@H](c2ccc(F)cc2)c2c(C(=O)N(C)CC#N)nn(-c3ccccc3)c21` (racemic) [Compound I-5, rac-(4R,5R)—N-(cyanomethyl)-7-ethyl-4-(4-fluorophenyl)-N-methyl-6-oxo-1-phenyl-5-(3-(trifluoromethyl)benzamido)-4,5,6,7-tetrahydro-1H-pyrazolo[3,4-b]pyridine-3-carboxamide]: the 50% inhibitory concentration (IC50) in assay [1] (setting [4]) is not above 200 nM; in assay [1] (TR FRET IC50 1 hr (nM), 1 hr after treatment with compound), not above 200 nM; in assay [2] (Homo sapiens, TF-1, 3 h) it was not above 100 nM. For the same compound, in the assay with fetal hemoglobin protein, the EC50 lay within 50 to 200 nM. Besides, the “Hemoglobin HPLC Ymax obs (%)” value with fetal hemoglobin protein was “++ (Hemoglobin HPLC Ymax greater than 65.0 and less than or equal to 100.0)”. At DCN1 protein, the “% Adduct Formation” value is “+++ (MS Emax % adduct formation greater than 80.0 and less than or equal to 100.0)”.
With `CCN1C(=O)[C@@H](NC(=O)c2cccc(C(F)(F)F)c2)[C@@H](c2ccc(F)cc2)c2c(C(=O)N(C)[C@@H](C#N)CCN(C)C)nn(-c3ccccc3)c21` (relative stereo) [Compound I-304, (4S,5S)—N-[(1R*)-1-cyano-3-(dimethylamino)propyl]-7-ethyl-4-(4-fluorophenyl)-N-methyl-6-oxo-1-phenyl-5-[3-(trifluoromethyl)benzamido]-4H,5H-pyrazolo[3,4-b]pyridine-3-carboxamide], the “Hemoglobin HPLC Ymax obs (%)” value in the assay with fetal hemoglobin protein is “++ (Hemoglobin HPLC Ymax greater than 65.0 and less than or equal to 100.0)”. On DCN1 protein, the “% Adduct Formation” value was “+++ (MS Emax % adduct formation greater than 80.0 and less than or equal to 100.0)”.
Compound `CCN1C(=O)[C@@H](NC(=O)c2cccc(C(F)(F)F)c2)[C@@H](c2ccc(F)cc2)c2c(C(=O)N(C)[C@@H](C#N)C3COC3)nn(-c3ccccc3)c21` (single isomer, unassigned) [Compound I-294] had an IC50 in assay [2] not above 100 nM. In the assay with fetal hemoglobin protein, the 50% effective concentration (EC50) fell in the range of 50 to 200 nM; the “Hemoglobin HPLC Ymax obs (%)” value was “++ (Hemoglobin HPLC Ymax greater than 65.0 and less than or equal to 100.0)”. Moreover, the “% Adduct Formation” value on DCN1 protein is “+++ (MS Emax % adduct formation greater than 80.0 and less than or equal to 100.0)”.
`CCN1C(=O)[C@@H](NC(=O)c2cccc(C(F)(F)F)c2)C(c2ccc(F)cc2)c2c(C(=O)N(CC#N)C3COC3)nn(-c3ccccc3)c21` (mixture of isomers) [Compound I-285]: the half-inhibitory concentration (IC50) is not above 200 nM in assay [1] (setting [4]); not above 200 nM in assay [1] (read-out: TR FRET IC50 1 hr, 1 hr after treatment with compound); not above 100 nM in assay [2] (Homo sapiens, TF-1, 3 h). Besides, in the assay with fetal hemoglobin protein, the EC50 was not above 50 nM. For the same compound, in the assay with fetal hemoglobin protein, the “Hemoglobin HPLC Ymax obs (%)” value is “++ (Hemoglobin HPLC Ymax greater than 65.0 and less than or equal to 100.0)”. Also, the “% Adduct Formation” value on DCN1 protein is “+++ (MS Emax % adduct formation greater than 80.0 and less than or equal to 100.0)”.
For the compound `C=C(CN1CCOCC1)C(=O)NC[C@@H](NC(=O)[C@H](Cc1nc2ccc(C(C)C)cc2s1)NC(=O)CC)C1CCCCC1` [DI-1548, reference compound], the kinact/KI in assay [3] is recorded as 0.9971 nM − 1 * min − 1. Moreover, in assay [3] (setting [5]), the Ki is 0.355 nM and the kinact is recorded as 0.3536 min^ − 1.

By IC50 is commonly meant the midpoint of a concentration-inhibition curve. As usually defined, the EC50 is the concentration at which the effect is half-maximal.
